Tested on: spinach variety (Bloomsdale Long-Standing)
Assay: Zinc uptake in spinach plants from application of fertilizer containing animal nutrient core packet (8-kg pot test)
Type: in vivo
Details: Soil applied Zn nutrient core product
Method: In this example tests were performed to quantify the incorporation of zinc in a common spinach variety (Bloomsdale Long-Standing) employing compositions of the present invention. The tests quantified the increase in leaf zinc content due to application of compositions of the present invention containing zinc. The impact of the present compositions on spinach biomass increase was not the primary objective. In addition to applications of the present compositions to soil, for comparative purposes, foliar application of zinc solutions were applied to spinach leaves. Direct foliar applications provide an indication of potentially maximum amounts of zinc uptake into the leaves. 1. Soil • 8 kg Greenville loam (fine, kaolinitic, thermic Rhodie Kandiudults), pH=6.2, organic matter=1.4%, CEC=5.2 cmol kg^−1. The soil has been depleted of nutrients by previous cropping of tomatoes and cabbage. 2. Experimental Units • The spinach was grown in 8-kg pots. Each pot was transplanted with two spinach seedlings on Mar. 5, 2010 3. Blanket Fertilizer Rates—Basal • All fertilizer materials were laboratory grade reagents to avoid contamination and antagonistic interaction with Zn, Fe and/or I. • Nitrogen: 250 mg N kg^−1 or 2 g N por^−1. […] Crop Data Analysis • The fresh and dried weight of spinach leaves was determined and analyzed for N, P, K, Zn, Fe and I. [table]

## O=C([O-])CN(CCN(CC(=O)[O-])CC(=O)[O-])CC(=O)[O-].[Na+].[Na+].[Zn+2] [Zinc EDTA]
  effectiveness as Zn source in the nutrient core in increasing Zn tissue content in spinach: more effective than ZnSO4
